Measurements as given in publication PMC11083148, “Structure–Activity Relationship Studies on Highly Functionalized Pyrazole Hydrazones and Amides as Antiproliferative and Antioxidant Agents” (International Journal of Molecular Sciences, 2024).

Key:
GM-6114 = experiment: MTT assay, cytotoxicity on normal fibroblasts; assay type: cell-based; details: human, 48 h, 10 µM
Hep-G2 = experiment: MTT assay, antiproliferative activity; assay type: cell-based; details: Homo sapiens, HepG2, 48h
Protocol: (§1) Pyrazole acylhydrazones 10–13 and amides 14–22 were tested by MTT assay to evaluate their antiproliferative and cytotoxicity properties against a panel of eight tumor cell lines and normal fibroblasts.
(§2) All reagents were purchased from EuroClone, Milan, Italy). The following cell lines were used for MTT assays: SKOV-3 (ovarian adenocarcinoma, ATCC, Manassas, VA, USA); MCF-7 (breast adenocarcinoma, Biologic Bank and Cell Factory, IRCCS Policlinico San Martino, Genoa, Italy); Hep-G2 (hepatocellular carcinoma, ATCC, Manassas, VA, USA); SK-MEL28 (skin melanoma, Biologic Bank and Cell Factory, IRCCS Policlinico San Martino, Genoa, Italy), GM-6114 (embryonic human fibroblast, ATCC, Manassas, VA, USA); MDA-MB231 (breast adenocarcinoma, Biologic Bank and Cell Factory, IRCCS Policlinico San Martino, Genoa, Italy); HeLa (cervical adenocarcinoma, Biologic Bank and Cell Factory, IRCCS Policlinico San Martino, Genoa, Italy); SK-BR3 (breast andenocarcinoma, Biologic Bank and Cell Factory, IRCCS Policlinico San Martino, Genoa, Italy); A549 (lung carcinoma, Biologic Bank and Cell Factory, IRCCS Policlinico San Martino, Genoa, Italy); HUVEC (Human Umbilical Vein Endothelial Cells, ATCC, Manassas, VA, USA). All cell lines were grown in their medium with 10% FBS, 2 mM Glutamine, and 1% penstrep and incubated at 37 °C in 5% CO2 in a humidified environment. The cell lines were plated in 96-well plates at an adequate number to reach 80–90% confluence at the end of the assay. 16 h after cell plating, a 10 mM DMSO stock solution of the compounds was diluted in growth medium and added at a final working concentration of 10 μM. After 48h of incubation, a 2 mg/mL PBS solution of MTT (3-(4,5-dimethyl-2-thiazolyl)-2,5-diphenyl-2H-tetrazolium bromide) was added (30 μL/well). After 4h, the supernatant was removed, and the Formazan precipitates were dissolved in DMSO (100 μL/well). The 96-well plates were incubated for 20 min, and absorbance was measured at 570 nm using a plate reader. The results are expressed as a percentage ratio over control samples (100%) in which the cells were incubated with the same amount of DMSO but without compounds. Each value is the mean of three independent experiments run in six replicates.

MDA-MB231 = experiment: MTT assay, antiproliferative activity; assay type: cell-based; details: Homo sapiens, MDA-MB-231, 48h
Protocol: as §1, §2

A549 = experiment: MTT assay, antiproliferative activity; assay type: cell-based; details: Homo sapiens, 48h, read-out: Mean Growth Percentage
Protocol: as §1, §2

SK-BR3 = experiment: MTT assay, antiproliferative activity; assay type: cell-based; details: Homo sapiens, SK-BR-3, 48h
Protocol: as §1, §2

HeLa = experiment: MTT assay, antiproliferative activity; assay type: cell-based; details: Homo sapiens, 10 µM, 48h, read-out: Mean Growth Percentage
Protocol: as §1, §2
(§3) Each IC50 value is the mean of three independent experiments run in duplicate.

MCF7 = experiment: MTT assay, antiproliferative activity; assay type: cell-based; details: Homo sapiens, 10 µM, 48h
Protocol: as §1, §2, §3

SKMEL28 = experiment: MTT assay, antiproliferative activity; assay type: cell-based; details: Homo sapiens, SK-MEL-28, 10 µM, 48h
Protocol: as §1, §2, §3

SKOV3 = experiment: MTT assay, antiproliferative activity; assay type: cell-based; details: Homo sapiens, SK-OV-3, 10 µM, 48h
Protocol: as §1, §2, §3

washed platelets [1] = experiment: ROS assay in platelets (DCFH-DA, thrombin-stimulated); assay type: cell-based, human; details: Homo sapiens, Platelet, 0.1 U/mL thrombin, mean ± SD, read-out: IC50 ROS production inhibition
Protocol: (§4) The antioxidant properties of acylhydrazones 10–13 and pyrazolyl amides 14–22 were tested by evaluating their inhibition of platelet aggregation and ROS production (Figure 3, Table S1). In fact, human platelets could represent a fast and low-cost biological model to screen compounds as anticancer, anti-inflammatory, and antiaggregating agents. Moreover, ROS production inhibition, related to human platelet aggregation, could provide a good indication of the anti-inflammatory and antioxidant properties of the newly synthesized compounds [47, 50, 51, 52]. N-acetylcysteine (NAC) and acetyl salicylic acid (ASA) were used as reference drugs for antioxidant and antiaggregant activities, respectively.
(§5) Freshly drawn venous blood from healthy volunteers from “Centro Trasfusionale” (IRCCS Policlinico San Martino, Genoa, Italy) was collected into a 130 mM aqueous trisodium citrate anticoagulant solution (9:1). The donors claimed to not have taken drugs known to interfere with platelet function during the two weeks prior to blood collection and gave their informed consent. Whole blood was centrifuged at 100× g for 20 min to afford platelet-rich plasma that was then spun at 1100× g for 15 min. The obtained pellet was washed once with a pH 5.2 ACD solution (75 mM trisodium citrate, 42 mM citric acid, and 136 mM glucose), centrifuged at 1100× g for 15 min, and then re-suspended in pH 7.4 Hepes buffer (145 mM NaCl, 5 mM KCl, 1 mM MgSO4, 10 mM glucose, and 10 mM HEPES).
2′,7′-Dichlorofluorescein diacetate (DCFH-DA) and thrombin were purchased from Sigma-Aldrich/Merck Millipore. DMSO solutions of 10–22 were diluted in saline immediately before each experiment. ROS production was quantified by DCFH-DA, a ROS-sensitive probe that yields, upon oxidation, the fluorescent adduct DCF that is trapped inside the cells. Briefly, washed platelets (1.0 × 10^8/mL), pre-incubated with saline solutions of 10–22 for 15 min at 37 °C, were stimulated by 0.1 U/mL thrombin. Incubation was stopped by cooling samples in an ice bath, and then samples were immediately analyzed in a Merck Millipore Bioscience Guava easyCyte flow cytometer (Merk Millipore, Burlington, MA, USA). The reported IC50 values represent the molar concentration of the compounds able to inhibit 50% of the maximal aggregation induced by the agonist and are calculated as the percentage inhibition of the maximal aggregation measured in the presence of the agent compared with the measure in a control sample containing saline, carried out under the same conditions. The IC50 values were extrapolated from nonlinear regression analysis of concentration–response curves (three points) using MS Excel software (Microsoft 365 suite). Each IC50 value is the mean of six independent experiments.

washed platelets [2] = experiment: Platelet aggregation (thrombin-induced, Born's method); assay type: cell-based; details: Homo sapiens, 0.1 U/mL thrombin, mean ± SD, read-out: IC50 Aggregation inhibition
Protocol: as §4, §5
Thrombin was purchased from Sigma-Aldrich/Merck Millipore. A DMSO solution of compounds 10–22 was diluted in saline immediately before each experiment and added to the washed platelets (3.0 × 10^8/mL) at 37 °C. After 3 min, 0.1 U/mL thrombin was added, and platelet aggregation was quantified according to Born’s method using a Bio-Data Aggregometer (Bio-Data Corporation, Horsham, PA, USA). The IC50 values were calculated as detailed above.

Compound | melting point [°C] | IC50 (washed platelets [1]) [µM] | IC50 (washed platelets [2]) [µM] | Mean Growth Percentage (GM-6114) [%] | Mean growth percentage at 10 µM (Hep-G2) [%] | Mean growth percentage at 10 µM (MDA-MB231) [%] | activity at 10 µM (A549) [%] | Mean growth percentage at 10 µM (SK-BR3) [%] | activity at 10 µM (HeLa) [%] | mean growth percentage (cell growth remaining vs control) at 10 µM (MCF7) [%] | Mean growth percentage at 10 µM (SKMEL28) [%] | Mean growth percentage at 10 µM (SKOV3) [%]
COc1ccc(/C=N/NC(=O)c2c(N)n[nH]c2Nc2ccccc2)cc1 [10a, (E)-3-amino-N′-(4-methoxybenzylidene)-5-(phenylamino)-1H-pyrazole-4-carbohydrazide] | 227 to 232 | 111 ± 9 | 204 ± 12 | 110.40 | 115 | 99.1 | 103 | 95.5 | 98.4 | 95.1 | 86.7 | 104
CCOC(=O)c1c(NC(=O)c2ccc(OC)cc2)n[nH]c1Nc1ccccc1 [compound 15, Ethyl 3-(4-methoxybenzamido)-5-(phenylamino)-1H-pyrazole-4-carboxylate] | 155 to 157 | 323 ± 14 | 250 ± 19 | 68.40 | 85.5 | 130 | 67.9 | 99.8 | 105 | 65.9 | 71.7 | 88.4
CCOC(=O)c1c(NC(=O)c2ccc(OC)c(OC)c2)n[nH]c1Nc1ccccc1 [compound 16, Ethyl 3-(3,4-dimethoxybenzamido)-5-(phenylamino)-1H-pyrazole-4-carboxylate] | 143 to 145 | 310 ± 24 | 292 ± 28 | 53.68 | 49.1 | 96 | 52.6 | 82.5 | 57.6 | 62.4 | 54 | 66.9
CCOC(=O)c1c(NC(=O)c2ccc(Cl)cc2)nn(C)c1Nc1ccccc1 [compound 18, Ethyl 3-(4-chlorobenzamido)-1-methyl-5-(phenylamino)-1H-pyrazole-4-carboxylate] | 158 to 161 | 273 ± 17 | 268 ± 25 | 72.99 | 78.5 | 141 | 69.6 | 80.9 | 91.5 | 63.5 | 68.4 | 96.9
CCOC(=O)c1c(NC(=O)c2ccc(OC)cc2)nn(C)c1Nc1ccccc1 [compound 19, Ethyl 3-(4-Methoxybenzamido)-1-methyl-5-(phenylamino)-1H-pyrazole-4-carboxylate] | 143 to 145 | 293 ± 18 | 294 ± 26 | 66.69 | 105 | 136 | 92.9 | 103 | 124 | 95.2 | 85.2 | 97.3

Continued, in another order:

melting point [°C] | IC50 (washed platelets [1]) [µM] | IC50 (washed platelets [2]) [µM] | Compound | Mean Growth Percentage (GM-6114) [%] | Mean growth percentage at 10 µM (Hep-G2) [%] | Mean growth percentage at 10 µM (MDA-MB231) [%] | activity at 10 µM (A549) [%] | Mean growth percentage at 10 µM (SK-BR3) [%] | activity at 10 µM (HeLa) [%] | mean growth percentage (cell growth remaining vs control) at 10 µM (MCF7) [%] | Mean growth percentage at 10 µM (SKMEL28) [%] | Mean growth percentage at 10 µM (SKOV3) [%]
104 to 106 | 106 ± 9 | 187 ± 16 | COc1ccc(/C=N/NC(=O)c2c(Nc3ccccc3)nn(C)c2N)cc1OC [12b, (E)-5-amino-N′-(3,4-dimethoxybenzylidene)-1-methyl-3-(phenylamino)-1H-pyrazole-4-carbohydrazide] | 99.78 | 92.7 | 91.7 | 95.3 | 94.2 | 92.8 | 101 | 73.3 | 98.6
158 to 159 | 433 ± 32 | 909 ± 87 | COc1ccc(/C=N/NC(=O)c2c(Nc3ccccc3)nn(CC(O)c3ccccc3)c2N)cc1OC (stereo not drawn) [13b, (E)-5-amino-N′-(3,4-dimethoxybenzylidene)-1-(2-hydroxy-2-phenylethyl)-3-(phenylamino)-1H-pyrazole-4-carbohydrazide] | 106.86 | 106 | 92.1 | 104 | 92.2 | 98.8 | 101 | 95.7 | 114
144 to 145 | 209 ± 15 | 313 ± 29 | COc1ccc(/C=N/NC(=O)c2c(Nc3ccccc3)nn(CC(O)c3ccccc3)c2N)cc1Oc1ccccc1 (stereo not drawn) [13c, (E)-5-amino-1-(2-hydroxy-2-phenylethyl)-N′-(4-methoxy-3-phenoxybenzylidene)-3-(phenylamino)-1H-pyrazole-4-carbohydrazide] | 99.14 | 125 | 104 | 94.4 | 87.5 | 97.9 | 99.8 | 104 | 129
